One may read the melting point as the temperature, or range, at which the solid turns liquid. The compound `O=C1CC(C(=O)NC(c2ccccc2)c2ccc(Cl)cc2)Oc2ccc(F)cc21` (single isomer, unassigned; (+)) registered a melting point of 167 °C.

With `CCOC(C)n1c(C)nc(-c2ccccc2)c1-c1ccccc1` (stereo unspecified), the melting point is 87 to 89 °C.

For `CCCCc1ccc(C#CC(C)N(O)C(N)=O)s1` (stereo unspecified), the melting point was 104 to 106 °C.

On to `O=Cc1c2ccccc2cc2sccc12`, for which the melting point is 113 °C.

Consider `Cc1ccc(S(=O)(=O)Nc2ccc(CCCC(=O)O)nc2)cc1`, for which the melting point was 154 to 155 °C.

As for `COc1ccc(Nc2c([N+](=O)[O-])cc([N+](=O)[O-])cc2C(F)(F)F)nc1`, the melting point lay within 102 to 105 °C.

`Cc1oc(-c2ccccc2)nc1CCOc1ccc(C[C@H](NC(=O)C=Cc2ccco2)C(=O)O)cc1` yielded a melting point of 199 to 201 °C.

On to `CC(=O)Oc1c(C)c2c(-c3ccc(C(C)C)cc3)coc2c2ccccc12`, for which the melting point lay within 118 to 119 °C.

For `O=C(NC1CCOCC1)c1cccc(-c2cccc3cc(Cc4cc(F)cc(Cl)c4)sc23)c1`, the melting point is 127 to 128 °C.

On to `COc1ccc(Oc2cc(N)c(F)cc2C#N)cc1`, for which the melting point was found to be 135 °C.

`CCCc1c(O[C@H]2CCC[C@H](Oc3ccc(C(=O)CCC(=O)O)cc3)C2)ccc(C(C)=O)c1O` (relative stereo) returned a melting point of 90 to 94 °C.

Regarding `CCCCCCc1cc2c(s1)NC(=O)CN=C2c1ccccc1OC`, the melting point fell in the range of 130 to 132 °C.

`COc1ccc(CCNc2nccc(-c3cccc(NC(C)=O)c3)n2)cc1OC` returned a melting point of 146 to 148 °C.

`Cc1nc[nH]c1CSCCNC1=NC(=O)C(C)(C)N1` displayed a melting point of 232 to 236 °C.

On to `COc1ccc(-c2nn(CC(C)C)c(=O)cc2-c2ccc(OC)c(F)c2)cc1`, for which the melting point worked out at 125 °C.

`CCOC(=O)CN1CCN(S(=O)(=O)c2ccc(N3CCC(NC[C@H](O)c4ccc(O)c(NS(C)(=O)=O)c4)CC3)cc2)CC1` had a melting point of 91 to 92 °C.

For `O=S(=O)(Cl)c1cc(S(=O)(=O)Cl)c(Cl)cc1Cl`, the melting point was 104 °C.

The compound `CN1Cc2c(-c3noc(CCl)n3)ncn2-c2cccc(C(F)(F)F)c2C1=O` gave a melting point of 180 to 184 °C.

`Oc1ccccc1C=Cc1nc2ccccc2s1` displayed a melting point of 235 to 236 °C.

As to `CCOC(=O)C[C@H]1O[C@H](c2cccc(OC)c2OC)c2cc(Cl)ccc2N(CC(C)(C)CO)C1=O`, the melting point is 188 to 190 °C.

Turning to `Cc1cc(-c2ccc(C(F)(F)F)cc2)nc(-c2cccc(-c3ccc(S(N)(=O)=O)s3)c2)c1`, the melting point came to 211 °C.

As for `CCCn1cc(-c2ccc3cc4c(cc3c2)C(C)(C)CCC4(C)C)cc1C(=O)O`, the melting point lay within 143 to 145 °C.

`COc1ccc(C(Cc2ccccc2)=NO)cc1` showed a melting point of 132 to 135 °C.

Compound `N#Cc1ccc(C(Cl)(Cl)Cl)cc1C(Cl)(Cl)Cl` had a melting point of 76 to 78 °C.

For the compound `S=C(Nc1ccccc1)c1ccccn1`, the melting point was in the range of 45 to 46 °C.

`Brc1ccc2c3c(cccc13)C(NCCCCn1ccnc1)=N2` came in with a melting point of 145 to 147 °C.

`COc1cc2c(cc1OC)CN(CC(O)c1ccc(NC(=O)c3cccc4c(=O)c5cccc(OC)c5[nH]c34)cc1)CC2` (stereo unspecified) gave a melting point of 160 to 165 °C.

Take `CCCCCCCCCc1ccc2c(c1)C1(O)C(=O)c3ccccc3C1(O)O2` (stereo unspecified): the melting point is 108 to 110 °C.

In turn, `CCCCCC(c1nccn1CC(=O)O)n1cnc2cc(-c3ccccc3-c3nn[nH]n3)ccc21` (stereo unspecified) registered a melting point of 150 to 160 °C.

Compound `COc1ccc(C#CCCCCCCC#CCO)cc1OC` returned a melting point of 39 to 41 °C.

The compound `CCCCOc1cc(I)c(OCCCC)cc1I` had a melting point of 86 to 87.5 °C.

The compound `COC(=O)C(CNC(=O)Cc1ccc(OC)c(OC)c1)c1ccc(OC)c(OC)c1` (stereo unspecified) returned a melting point of 92 to 93 °C.

As to `CC(C)c1cc(O)cc(C(C)C)c1NC(=O)CN1CCN(CCSc2nc3ccccc3[nH]2)CC1`, the melting point lay within 241 to 242 °C.

The compound `O=C(NCCN1CCCC1)c1ccc(-c2ccc3nnn(Cc4ccc5ncccc5c4)c3n2)cc1F` gave a melting point of 183 to 186 °C.

For the compound `COc1ccc(Nc2ccc(CO)cc2)cc1`, the melting point was 110 °C.

`Cc1cc(C)cc(-c2c(O)c3ccc(Cl)cc3[nH]c2=O)c1` gave a melting point of 369 °C.

As for `CN(Cc1cccc2c1CN(C1CCC(=O)NC1=O)C2=O)C(=O)Nc1cccc(F)c1` (stereo unspecified), the melting point is 218 to 220 °C.

Turning to `CC(C)Cc1cc2c(s1)C(C(=O)O)CC2=O` (stereo unspecified), the melting point was found to be 80 °C.

`FC(F)(F)c1nc2cc(Cl)c(Cl)cc2nc1-c1nc2ccccc2o1` gave a melting point of 157 to 158 °C.

The compound `Cn1cnc(COc2nc3c(-c4ccccc4F)nncn3c2-c2ccccc2)n1` yielded a melting point of 186 °C.

As to `COC(=O)CN1C(=O)C2=C(c3ccc(Cl)cc3C(c3ccccc3Cl)=NC2)C1C` (stereo unspecified), the melting point is 221 to 223 °C.

As to `CNS(=O)(=O)c1ccc(-c2cccc3nc(Nc4cc(OC)c(OC)c(OC)c4)oc23)cc1`, the melting point lay within 260 to 262 °C.

`COC(=O)c1cc(Oc2ccc(F)cc2F)ncc1N` had a melting point of 102 to 104 °C.

Take `O=C1CN(Cc2cccc(I)c2)S(=O)(=O)N1`: the melting point was 101 to 103 °C.

Take `CC(C)(C)NC(=O)[C@@H]1CC(=O)CN1C(=O)[C@@H](O)[C@H](Cc1ccccc1)NC(=O)[C@H](CC(N)=O)NC(=O)OCc1ccccc1`: the melting point fell in the range of 116 to 120 °C.

Turning to `CCCC(CC)c1nc(C)nc2c1c(C)c(C)n2-c1c(C)cc(C)cc1C` (stereo unspecified), the melting point lay within 100 to 102 °C.

For `N#Cc1ccc(COc2ccc3c(c2)CCNC3=O)cc1`, the melting point lay in the range of 158 to 160 °C.

Regarding `CC1(C)CC(=O)c2c(C3CCCCC3)sc(C#N)c2C1`, the melting point is 129 to 132 °C.

With `CC(C(=O)OC1(C)CCCCC1)c1ccc2nc(N)sc2c1` (stereo unspecified), the melting point fell in the range of 165 to 167 °C.

Consider `CCOC(=O)c1occ(-c2ccccc2)c(=O)c1Br`, for which the melting point is 134 °C.

Compound `CC[C@H](C(=O)O)[C@H](N)C(=O)O` had a melting point of 239 to 241 °C.

The compound `CCOC(=O)C(=CNc1ccn(Cc2ccco2)n1)C(=O)c1ccccc1` had a melting point of 75 to 77 °C.

For `CSc1sc(-c2nnn(C)n2)c2c1C(=O)CC(C)(C)C2`, the melting point lay in the range of 233 to 235 °C.

For the compound `N#CC1CN(C(=O)[C@H](NC(=O)c2c[nH]c3ncc(-c4ccc(N5CCOCC5)cc4)nc23)C2CC2)C1`, the melting point was 186 to 192 °C.

`Oc1ccc2c(c1)COc1c-2cc2ccc(O)cc2c1-c1ccc(Cl)cc1`: the melting point fell in the range of 239 to 242 °C.

Compound `O=C1C(Cc2ccncc2)c2ccccc2N1N1CCCCC1` (stereo unspecified) yielded a melting point of 83 to 86 °C.

In turn, `CCc1ccc(Nc2nc3cc(NC(=O)c4ccccc4)ccc3o2)cc1` displayed a melting point of 239 to 240 °C.

`Cc1ccc(C=CC(=O)NNC(=O)CCc2cc(C(C)(C)C)c(O)c(C(C)(C)C)c2)cc1` came in with a melting point of 274 to 275 °C.

On to `CC(=O)OC(OC(C)=O)c1cc(Br)c(C(OC(C)=O)OC(C)=O)cc1Br`, for which the melting point lay in the range of 200 to 210 °C.

`Cc1ccc(Cl)c(Nc2ccccc2-c2nsc(=O)o2)c1Cl`: the melting point lay in the range of 135 to 137 °C.

In turn, `CCCCCCNC(=O)[C@@H](NC(=O)[C@H](CC(C)C)NC(=O)OC(C)(C)C)C(C)C` registered a melting point of 115 to 116 °C.

For `CC1C(C(N)=O)CC2CC1C2(C)C` (single isomer, unassigned; (+)), the melting point was 131 °C.

On to `COc1cccc(C=C2CCc3c2nc2ccc(C(=O)O)cn2c3=O)c1`, for which the melting point is 310 to 312 °C.

`Cc1ccc2c(NCc3ccc(NC(=O)c4ccc(C)nc4)cc3)nc(Cl)nc2c1` gave a melting point of 257 to 259 °C.

`CC(C)(C)OC(=O)Nc1cc(N2CCOCC2)c(I)cc1[N+](=O)[O-]`: the melting point fell in the range of 43 to 44 °C.

Regarding `N#CC1CCSc2[nH]c3ccccc3c21` (stereo unspecified), the melting point lay in the range of 125 to 126 °C.

For `O=C(O)CCc1cn(Cc2ccc(OCc3ccc(-c4ccccc4)cn3)cc2)cc1-c1ccccc1`, the melting point fell in the range of 169 to 170 °C.

`COc1ccccc1Cc1c(Cl)ncnc1Cl` yielded a melting point of 95 to 96 °C.

In turn, `O=C1OCCN1N=C1CCOc2ccccc21` gave a melting point of 105 to 108 °C.

Take `COc1ccc(CNc2n[nH]c3ncnc(Nc4cccc(Cl)c4)c23)cc1Cl`: the melting point was in the range of 205 to 208 °C.

Compound `COc1ccc(NC(=O)c2sccc2S(=O)(=O)Nc2onc(C)c2Br)cc1` yielded a melting point of 202 to 205 °C.

`N#Cc1cnc2cc(-c3ccc(CN4CCOCC4)cc3)sc2c1Nc1ccc(Oc2ccccc2)cc1` registered a melting point of 254 to 256 °C.

`COc1cc(C(=O)N2Cc3ccc(C(=O)NCc4cccnc4)n3Cc3ccccc32)ccc1-c1ccccc1C` yielded a melting point of 165 to 167 °C.

Compound `CCOC(=O)C=Cc1ccc(OC)cc1OC` had a melting point of 58 °C.

Compound `O=C(O)CCC(=O)c1ccc(OCCCCN2C(=O)c3ccccc3C2=O)cc1` came in with a melting point of 133 to 134 °C.

The compound `COc1ccccc1C1(Cl)C(=O)Nc2ccc(Cl)cc21` (stereo unspecified) returned a melting point of 220 to 224 °C.

`COc1cc(C)c(C(=O)c2c(Cl)cccc2Cl)cc1Br` had a melting point of 159 °C.

`COc1cc(Cl)ccc1CCl` showed a melting point of 43 to 45 °C.

Compound `O=C(OCc1ccccc1)c1ccc(O)c(O)c1` registered a melting point of 147 to 149 °C.

On to `O=C1Nc2ccc(F)cc2Nc2sc3ccccc3c21`, for which the melting point was in the range of 249 to 250 °C.

Turning to `CN(Cc1ccc(F)cc1)C(=O)c1cnc2c([N+](=O)[O-])cccc2c1Cl`, the melting point is 135 to 137 °C.

`O=S(=O)(Nc1ccc2c(OCc3ccc(OC(F)(F)F)cc3)cccc2c1)C(F)(F)F` showed a melting point of 80 to 82 °C.

Compound `O=C1CCCC2=C1C(c1ccc(Br)s1)C1=C(CCS1)N2` (stereo unspecified) displayed a melting point greater than 250 °C.

In turn, `Cn1ncc(C(=O)N2CCC2)c1C(=O)Nc1ccn2nc(-c3cccc(F)c3)nc2c1` returned a melting point of 232 to 236 °C.

`[N-]=[N+]=Nc1nc(NC(=O)c2ccccc2)nc2c1ncn2CC(O)CF` (racemic) yielded a melting point of 198 °C.

The compound `CNC(Cc1ccc(C(F)(F)F)cc1N)c1sccc1C` (stereo unspecified) returned a melting point of 52 to 54 °C.

The record behind these values is a melting point compilation (Tetko et al.; mined from patent text by program, amines drawn as free bases though some values may be those of a salt).
